# In PMC10817917, “Alkyl deoxyglycoside-polymyxin combinations against critical priority carbapenem-resistant gram-negative bacteria” (Scientific Reports, 2024):
# Entries after “also recorded” stand apart in the source; their conditions may differ. Where two headings read alike, the source gives them in different places.
# How the values were obtained:
# [1] = test system: E. coli ATCC 25922; assay: Broth microdilution MIC/MBC, glycosides with or without polymyxins; assay type: cell-based, Escherichia coli; details: for MIC: Escherichia coli, ATCC25922
# [2] = test system: E. cloacae CQ1941; assay: as above; assay type: cell-based; details: for MIC: Enterobacter cloacae, CQ1941
# [3] = test system: K. pneumoniae CQ1942; assay: Broth microdilution MIC, glycosides with or without polymyxins; assay type: cell-based, Klebsiella pneumoniae; details: for MIC: Klebsiella pneumoniae, CQ1942
# [4] = test system: Caco-2 cells; assay: Resazurin cell viability assay (cytotoxicity); assay type: cell-based, human; details: Homo sapiens, Caco-2, 72 h, read-out: IC50
# Method in brief: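 HEK-293T and Caco-2 cells (1.5 × 10^4/well, RPMI 1640 with 10% FBS) exposed 72 h at 37 °C to glycosides at final 100 to 10 µM, alone or with PMB or colistin at final 0.5, 0.25 or 0.125 µg/mL; max DMSO 0.33%. Resazurin added 4 h, read 570/600 nm; IC50 from dose-response fits, mean ± SD of three replicates.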
# [5] = PE vs phosphatidylcholine (PC); cited from earlier work
# [6] = alone, read-out: MICA (MIC of each compound individually)
# [7] = combination with the lowest FICI
# [8] = compound + colistin, lowest FICI
smiles,measurement,setting,value
"CCCCCCCCCCCCO[C@@H]1C[C@@H](O)[C@H](O)[C@@H](CO)O1 [Compound 4, dodecyl 2-deoxy-α-D-arabino-hexopyranoside]",MIC of colistin in combination with the compound,"[1]; Cpd conc. 0.4 μg/mL, strain A",0.5 µg/mL
same,MIC of colistin in combination with the compound,"[1]; Cpd conc. 0.8 μg/mL, strain A",0.5 µg/mL
same,MIC of colistin in combination with the compound,"[1]; Cpd conc. 3.125 μg/mL, strain A",0.5 µg/mL
same,MIC of colistin in combination with the compound,"[1]; Cpd conc. 6.25 μg/mL, strain A",0.5 µg/mL
same,MIC of colistin in combination with the compound,"[1]; Cpd conc. 12.5 μg/mL, strain A",0.5 µg/mL
same,MIC of colistin in combination with the compound,"[1]; Cpd conc. […], strain A",0.5 µg/mL
same,MIC,"[1]; agent alone, no adjuvant (polymyxin conc. 0), strain A, read-out: MIC",> 100 µg/mL
same,MIC,[1]; [6],> 100 µg/mL
same,MIC of compound in combination with PMB,"[1]; PMB 0.25 μg/mL, strain A",> 100 µg/mL
same,MIC of compound in combination with PMB,"[1]; PMB 0.5 μg/mL, strain A",≤ 0.1 µg/mL
same,MIC of compound in combination with colistin,"[1]; colistin 0.5 μg/mL, strain A",≤ 0.1 µg/mL
same,MICA(A + B) (MIC of compound in combination with colistin),[1]; [7],0.4 µg/mL
same,MICB(A + B) (MIC of colistin in combination with compound),[1]; [7],0.5 µg/mL
same,Interpretation (of FICI),[1]; compound + colistin,Indifferent (1.0 to 4.0 were indifferent)
same,FICI,[1]; [8],1.002
same,MIC of colistin in combination with the compound,"[2]; Cpd conc. 0.4 μg/mL, strain D",0.5 µg/mL
same,MIC of colistin in combination with the compound,"[2]; Cpd conc. 0.8 μg/mL, strain D",0.5 µg/mL
same,MIC of colistin in combination with the compound,"[2]; Cpd conc. 3.125 μg/mL, strain D",0.5 µg/mL
same,MIC of colistin in combination with the compound,"[2]; Cpd conc. 6.25 μg/mL, strain D",0.5 µg/mL
same,MIC of colistin in combination with the compound,"[2]; Cpd conc. 12.5 μg/mL, strain D",0.5 µg/mL
same,MIC of colistin in combination with the compound,"[2]; Cpd conc. […], strain D",0.5 µg/mL
same,MIC,"[2]; agent alone, no adjuvant (polymyxin conc. 0), strain D, read-out: MIC",> 100 µg/mL
same,MIC,[2]; [6],> 100 µg/mL
same,MIC of compound in combination with PMB,"[2]; PMB 0.25 μg/mL, strain D",> 100 µg/mL
same,MIC of compound in combination with PMB,"[2]; PMB 0.5 μg/mL, strain D",≤ 0.1 µg/mL
same,MIC of compound in combination with colistin,"[2]; colistin 0.25 μg/mL, strain D",> 100 µg/mL
same,MIC of compound in combination with colistin,"[2]; colistin 0.5 μg/mL, strain D",≤ 0.1 µg/mL
same,MICA(A + B) (MIC of compound in combination with colistin),[2]; [7],0.4 µg/mL
same,MICB(A + B) (MIC of colistin in combination with compound),[2]; [7],0.5 µg/mL
same,Interpretation (of FICI),[2]; compound + colistin,Indifferent (1.0 to 4.0 were indifferent)
same,FICI,[2]; [8],1.002
same,MIC of colistin in combination with the compound,"[3]; Cpd conc. 0.4 μg/mL, strain E",0.5 µg/mL
same,MIC of colistin in combination with the compound,"[3]; Cpd conc. 0.8 μg/mL, strain E",0.5 µg/mL
same,MIC of colistin in combination with the compound,"[3]; Cpd conc. 3.125 μg/mL, strain E",0.5 µg/mL
same,MIC of colistin in combination with the compound,"[3]; Cpd conc. 6.25 μg/mL, strain E",0.5 µg/mL
same,MIC of colistin in combination with the compound,"[3]; Cpd conc. 12.5 μg/mL, strain E",0.5 µg/mL
same,MIC of colistin in combination with the compound,"[3]; Cpd conc. […], strain E",0.5 µg/mL
same,MIC,"[3]; agent alone, no adjuvant (polymyxin conc. 0), strain E, read-out: MIC",> 100 µg/mL
same,MIC,[3]; [6],> 100 µg/mL
same,MIC of compound in combination with PMB,"[3]; PMB 0.25 μg/mL, strain E",> 100 µg/mL
same,MIC of compound in combination with PMB,"[3]; PMB 0.5 μg/mL, strain E",1.6 µg/mL
same,MIC of compound in combination with colistin,"[3]; colistin 0.25 μg/mL, strain E",> 100 µg/mL
same,MIC of compound in combination with colistin,"[3]; colistin 0.5 μg/mL, strain E",≤ 0.1 µg/mL
same,MICA(A + B) (MIC of compound in combination with colistin),[3]; [7],0.4 µg/mL
same,MICB(A + B) (MIC of colistin in combination with compound),[3]; [7],0.5 µg/mL
same,Interpretation (of FICI),[3]; compound + colistin,Indifferent (1.0 to 4.0 were indifferent)
same,FICI,[3]; [8],1.002
same,IC50,[4]; Colistin 0.5 μg/mL,> 100 µM
same,IC50,[4]; No polymyxin,> 100 µM
same,IC50,[4]; tested alone (no polymyxin adjuvant),> 33 µg/mL
same,interaction with phosphatidylethanolamine (PE),[5],Non PE-binder; also recorded: limited affinity towards PE
